The IC50 is the concentration that inhibits the measured activity by half.

The source of these data is US9540412B2, “Methods of preparing targeted aptamer prodrugs” (Albert Einstein College of Medicine, Inc., priority 2010, dated 2017).

Like-named read-outs stand apart in the source and are kept apart here.

The target in series [1] is T1, human protein tyrosine kinase-7 (Homo sapiens, UniProt Q13308).
T1 construct: This protein is overexpressed on a variety of leukemia cell lines; endogenous in cells; host or cells: 'target cells'
T1 sequence (Q13308 31-1070): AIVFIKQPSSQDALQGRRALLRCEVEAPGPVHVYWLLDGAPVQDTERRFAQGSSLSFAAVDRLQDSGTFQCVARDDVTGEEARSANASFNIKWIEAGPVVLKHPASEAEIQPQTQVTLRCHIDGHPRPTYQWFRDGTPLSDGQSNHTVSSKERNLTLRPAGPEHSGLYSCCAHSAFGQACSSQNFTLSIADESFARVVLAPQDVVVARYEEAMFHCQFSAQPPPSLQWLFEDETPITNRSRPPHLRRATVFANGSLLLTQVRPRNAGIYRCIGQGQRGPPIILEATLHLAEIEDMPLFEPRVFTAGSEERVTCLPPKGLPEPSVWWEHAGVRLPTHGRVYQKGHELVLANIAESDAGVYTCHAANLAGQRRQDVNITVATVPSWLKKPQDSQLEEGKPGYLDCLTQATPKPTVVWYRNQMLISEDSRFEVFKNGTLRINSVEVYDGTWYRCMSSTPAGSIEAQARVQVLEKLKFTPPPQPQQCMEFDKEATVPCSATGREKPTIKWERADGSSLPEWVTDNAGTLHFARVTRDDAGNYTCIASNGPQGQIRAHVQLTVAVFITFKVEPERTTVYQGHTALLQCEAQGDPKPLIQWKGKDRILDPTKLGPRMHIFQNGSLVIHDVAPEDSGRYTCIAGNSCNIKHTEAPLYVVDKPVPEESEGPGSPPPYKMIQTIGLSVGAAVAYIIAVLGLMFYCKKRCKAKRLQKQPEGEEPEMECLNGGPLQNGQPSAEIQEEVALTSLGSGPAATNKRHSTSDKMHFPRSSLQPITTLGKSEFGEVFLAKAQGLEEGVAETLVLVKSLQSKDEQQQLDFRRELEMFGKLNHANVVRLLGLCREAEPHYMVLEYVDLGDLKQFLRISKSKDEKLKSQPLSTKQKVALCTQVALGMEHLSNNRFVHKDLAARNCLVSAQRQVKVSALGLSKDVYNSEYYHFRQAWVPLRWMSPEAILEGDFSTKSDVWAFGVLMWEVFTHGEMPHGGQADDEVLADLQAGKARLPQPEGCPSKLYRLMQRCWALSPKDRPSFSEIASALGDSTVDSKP
Nature of the series: Binding of fluorescently labeled scgc8 aptamer prodrugs to target cells (FIG. 4A). As to conditions: fluorescently labeled aptamers. From the text: (§1) In addition to adding drugs to aptamers by hybridization, a series of aptamer-prodrugs has been synthesized using a DNA aptamer (scgc8) which targets human protein tyrosine kinase-7. […] To stabilize these aptamers against serum nucleases, the oligonucleotides were generated bearing a 3′ inverted thymidine residue which dramatically stabilizes the serum half-life of DNA molecules to ˜20 hrs (Dass et al. 2002).
A ssDNA aptamer that targets protein kinase 7 was selected by Shanggun et al (J Proteome Res, 2008 7:2133). The aptamer, scgc.8, was adapted for the delivery of floxuridine (5FdU) by site specific incorporation this nucleoside analog drug during chemical synthesis. Aptamer prodrugs were synthesized bearing a 5′ fluorescein molecule and a 3′ inverted thymiding residue to enhance serum stability. The sequence of the parental aptamer and the aptamer prodrugs are: Scgc.8 […] (SEQ ID NO:8); Scgc.8-5 AU*CU*AACU*[…]*U*AGA (SEQ ID NO:9); Scgc.8-9 AU*CU*AACU*GCU*GCGCCGCCGGGAAAAU*ACU*GU*ACGGU*U*AGA (SEQ ID NO:10). U* denotes 5FdU.

The test system of the next series is Jurkat cells. Briefly: Jurkat cell growth inhibition / toxicity (FIG. 4B). Conditions: 500 nM, regular media (RPMI+10% FBS), 3' inverted thymidine. In kind it is cell-based, human.
Text: as §1

Another series relates to LNCaP cells. Conditions: unconjugated toxin; read-out: IC50 (toxicity); cited from earlier work.
For series [2], the system named is Min6B1 cells. Nature of the series: Flow cytometry cell labeling of Min6B1 cells. In kind it is cell-based, mouse. Conditions: streptavidin phycoerytherin.
In another series the test system is HeLa cells. Briefly: HeLa cell viability (alamarBlue) after aptamer-prodrug treatment. In kind it is cell-based, human. Conditions: 50 nM aptamer, 4 days, serum free media (DMEM containing 1% Nutridoma), FIG. 3. From the text:
To test the feasibility of this strategy for delivery of nucleoside analog drugs, two different anti-hTfR aptamers (designated min8 and min9.1) were extended with a 24 nucleotide extension. A complementary DNA oligonucleotide (FdC-oligo) was then synthesized to this region in which all cytosine residues had been replaced with the nucleoside analog 5F-deoxycytidine (FdC), a potent inhibitor of methyltransferase activity (Beumer et al. 2008). The aptamer-produgs were then assembled by mixing the drug oligo at a 1:1 molar ratio with one of two different minized anti-hTfR aptamers, min8, min9.1, or a non-targeting control aptamer (cntrl) in PBS and thermally equilibrated by heating at 70° C. Aptamer function following hybridization was confirmed by FACS using a FITC labeled version of the oligonucleotide.
The ability of the assembled anti-hTfR aptamer-prodrugs to deliver therapeutic cargo to cells was tested on HeLa cells. To avoid potential complications from degradation of the FdC-oligo (which is DNA and thus readily susceptible to degradation), these assays were performed in serum free media (DMEM containing 1% Nutridoma). Cells were incubated with increasing concentrations of either free drug, anti-hTfR aptamer-prodrugs or controls for 4 days, after which cell viability was assayed using the chromogenic substrate alamarBlue. […]

Series [3] deals with Min6B1 cells. Briefly: Internalization into Min6B1 cells (fluorescence microscopy). In kind it is cell-based, mouse. As for the experimental part: Aptamers that target and are internalized by beta cells were identified by performing an internalization selection against the glucose-responsive immortalized mouse beta cell line Min6B1. As in the selection against the transferrin receptor described above, in order to drive the selection towards molecules that are internalized, following incubation with the RNA library, target cells were washed extensively and treated with trypsin and ribonuclease to remove any surface bound RNA. Following recovery of total RNA, aptamers were amplified, transcribed and the process was repeated.
When similar experiments were conducted with the unselected library, little or no fluorescent signal was observed.

Series [4] concerns mouse (fibroblasts, brain endothelial, skeletal and myocardial muscles) and human (cervical and prostate cancer) cell lines. Briefly: Specificity studies on additional mouse and human cell lines. In kind it is cell-based.

For “scgc8-9: scgc8 with all 9 thymidine residues replaced with floxuridine, SEQ ID NO:10 (AUCUAACUGCTGCGCCGCCGGGAAAATACTGTACGGUUAGA; all 9 thymidines replaced with floxuridine, chemistry not fully specified)”, the “binding to target cells” value in series [1] is reported as “still bound target cells better than a scrambled control sequence (cntrl-9) but less efficiently than the non-drug containing aptamer (scgc8)”. Besides, the “inhibition of cell growth / toxicity” value in the series with Jurkat cells is “inhibited cell growth as efficiently as free drug alone”.

As for gelonin, in the series on LNCaP cells, the IC50 was roughly 5 µM.

For the molecule “scgc8-5: scgc8 with 5 of 9 thymidine residues replaced with floxuridine, SEQ ID NO:9 (AUCUAACUGCTGCGCCGCCGGGAAAATACTGTACGGUUAGA; floxuridine substitutions, chemistry not fully specified)”, the “binding to target cells” value in series [1] is listed as “still bound target cells better than a scrambled control sequence (cntrl-9) but less efficiently than the non-drug containing aptamer (scgc8)”. For the same molecule, the “inhibition of cell growth / toxicity” value in the series on Jurkat cells is “considerable lower levels of toxicity”.

“C1.min: minimized core of C1, SEQ ID NO:12 (UGCGAAUCCUCUAUCCGUUCUAAACGCUUUAUGAUUUCGCA; listed as RNA, chemistry not given here)”: the cell labeling result in the series with Min6B1 cells [2] is reported as “labeled cells as efficiently as the full length clone”.

For `Nc1nc(=O)n([C@H]2C[C@H](O)[C@@H](CO)O2)cc1F` [free drug, 5F-deoxycytidine], the cell viability result in the series with HeLa cells is listed as “loss of cell viability”.

B1: C1: 2′F modified internalizing RNA selected against Min6B1 cells, SEQ ID NO:11 (nucleic acid)
chain: GGGAGGUGAAUGGUUCUACGAUAUUGCGAAUCCUCUAUCCGUUCUAAACGCUUUAUGAUUUCGCAUAGUCCUUACAUGCGAGAUGACCACCGUAAUUGAAUUAAAUGCCCGCCAUGACCAG
modifications: 2'-fluoro modified RNA library, positions of 2'-F not given here
As for B1, the cell labeling result in the series with Min6B1 cells [2] was “significant cell labeling”. In addition, the internalization result in the series on Min6B1 cells [3] is on record as “not only binds to, but is also internalized by this cell type”; in the series on Min6B1 cells [3] (listed as dominant clone) it was “readily internalized by Min6B1 cells”. The entries for the “cell specificity of targeting / internalization” value in series [4] and in series [4] (listed as dominant clone) were “targets several unrelated cell lines across different species” and “not specific for beta cells”, respectively.
